Biological target: T1, human leukocyte elastase (HLE) (Homo sapiens, UniProt P08246)
T1 construct: purchased Calbiochem
T1 sequence (P08246 30-247 limits assumed): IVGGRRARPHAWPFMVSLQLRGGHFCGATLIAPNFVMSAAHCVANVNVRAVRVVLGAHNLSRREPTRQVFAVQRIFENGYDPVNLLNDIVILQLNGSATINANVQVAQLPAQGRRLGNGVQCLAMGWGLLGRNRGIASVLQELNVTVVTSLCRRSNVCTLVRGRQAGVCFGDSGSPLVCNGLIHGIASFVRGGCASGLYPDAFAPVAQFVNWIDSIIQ
Assay: Kinetic parameters of HLE inhibition (fluorogenic substrate, steady-state KI^ss and K5/KI)
Format: biochemical
Conditions: HLE (Calbiochem), 37° C., pH 7.4 phosphate buffer, 1% DMSO, 1% MeCN; for kinact/KI: read-out: K5 /KI (rate of formation of the HLE-inhibitor complex); for Ki: read-out: KI^ss (apparent dissociation constant of the HLE-inhibitor complex at steady state)
Experimental: Kinetic parameters of HLE (Calbiochem) were determined at 37° C., 0.027M pH 7.4 phosphate buffer, 1% DMSO, 1% MeCN, NaCl (I=0.15), by monitoring the release of 7-amino-4-methylcoumarin (fluorescence detection) from N-methoxysuccinyl-alanyl-prolyl-valyl-7-amido-4-methylcoumarin as the substrate, according to the equations: [formula] wherein [P], [I], [S]=product, inhibitor, and substrate concentration
Km =Michaelis constant for the enzyme substrate pair (independently determined under the same experimental conditions)

Work on `CO[C@H]1C(=O)N2C(C(=O)C(C)(C)C)=C(C)C(Cc3ccc([N+](=O)[O-])cc3)(Sc3nnnn3C)S(=O)(=O)[C@H]12` (stereo partly drawn) [Compound 6, 4-tert-Butylcarbonyl-7α-methoxy-3-methyl-2-(1-methyl-1,2,3,4-tetrazol-5-yl)thio-2-(4-nitrobenzyl)-3-cephem 1,1-dioxide] yielded a kinact/KI of 600000 M⁻¹ s⁻¹ and a Ki of 1 nM.
Work on `COc1nn(C)c(SC2(C)C(C)=C(C(=O)C(C)(C)C)N3C(=O)[C@H](OC)[C@H]3S2(=O)=O)nc1=O` (stereo partly drawn) [Compound 15, 2-(2,5-Dihydro-6-methoxy-2-methyl-5-oxo-1,2,4-triazin-3-yl)thio-4-tert-butylcarbonyl-2,3-dimethyl-7α-methoxy-3-cephem 1,1-dioxide] yielded a kinact/KI of 1.4e+06 M⁻¹ s⁻¹.
`CO[C@H]1C(=O)N2C(C(=O)C(C)(C)C)=C(C)C(C)(Sc3nnnn3C)S(=O)(=O)[C@H]12` (stereo partly drawn) [Compound 5, 4-tert-Butylcarbonyl-2,3-dimethyl-7α-methoxy-2-(1-methyl-1,2,3,4-tetrazol-5-yl)thio-3-cephem 1,1-dioxide] was tested, and the kinact/KI was 570000 M⁻¹ s⁻¹ and the Ki was 1.9 nM.
With `CO[C@H]1C(=O)N2C(C(=O)C(C)(C)C)=C(C)C(C)(Sc3nc(=O)c(OC(c4ccccc4)c4ccccc4)nn3C)S(=O)(=O)[C@H]12` (stereo partly drawn) [Compound 11, 2-(6-Benzhydryloxy-2-methyl-5-oxo-2,5-dihydro-1,2,4-triazin-3-yl)thio-4-tert-butylcarbonyl-2,3-dimethyl-7α-methoxy-3-cephem 1,1-dioxide] the kinact/KI was 1.3e+07 M⁻¹ s⁻¹ and the Ki was under 1 nM.
`CO[C@H]1C(=O)N2C(C(=O)C(C)(C)C)=C(C)C(Cc3ccc(C(=O)O)cc3)(Sc3nnnn3C)S(=O)(=O)[C@H]12` (stereo partly drawn) [Compound 32, 4-tert-Butylcarbonyl-2-(4-carboxybenzyl)-7α-methoxy-3-methyl-2-(1-methyl-1,2,3,4-tetrazol-5-yl)thio-3-cephem 1,1-dioxide] was tested, and the kinact/KI was 200000 M⁻¹ s⁻¹ and the Ki was 7 nM.
`C=CCC1(Sc2nc(=O)c(OC(c3ccccc3)c3ccccc3)nn2C)C(C)=C(C(=O)C(C)(C)C)N2C(=O)[C@H](OC)[C@H]2S1(=O)=O` (stereo partly drawn) [Compound 24, 2-allyl-2-(6-benzhydryloxy-2,5-dihydro-2-methyl-5-oxo-1,2,4-triazin-3-yl)thio-4-tert-butylcarbonyl-7α-methoxy-3-methyl-3-cephem 1,1-dioxide] was tested, and the kinact/KI was 93000 M⁻¹ s⁻¹ and the Ki was 8 nM.
`CO[C@H]1C(=O)N2C(C(=O)C(C)(C)C)=C(C)C(C)(Sc3nc(=O)c(O)nn3C)S(=O)(=O)[C@H]12` (stereo partly drawn) [Compound 12, 2-(2,5-Dihydro-6-hydroxy-2-methyl-5-oxo-1,2,4-triazin-3-yl)thio-4-tert-butylcarbonyl-2,3-dimethyl-7α-methoxy-3-cephem 1,1-dioxide] gave a kinact/KI of 37000 M⁻¹ s⁻¹ and a Ki of 30 nM.
Work on `CO[C@H]1C(=O)N2C(C(=O)C(C)(C)C)=C(C)C(Cc3ccccc3)(Sc3nc(=O)c(O)nn3C)S(=O)(=O)[C@H]12` (stereo partly drawn) [Compound 18, 2-Benzyl-2-(2,5-dihydro-6-hydroxy-2-methyl-5-oxo-1,2,4-triazin-3-yl)thio-4-tert-butylcarbonyl-7α-methoxy-3-methyl-3-cephem 1,1-dioxide] yielded a kinact/KI of 14000 M⁻¹ s⁻¹ and a Ki of 16 nM.
For `C=CCC1(Sc2nnnn2C)C(C)=C(C(=O)C(C)(C)C)N2C(=O)[C@H](OC)[C@H]2S1(=O)=O` (stereo partly drawn) [Compound 7, 2-Allyl-4-tert-butylcarbonyl-7α-methoxy-3-methyl-2-(1-methyl-1,2,3,4-tetrazol-5-yl)thio-3-cephem 1,1-dioxide], the kinact/KI was 360000 M⁻¹ s⁻¹ and the Ki was 3 nM.
`CO[C@H]1C(=O)N2C(C(=O)C(C)(C)C)=C(C)C(Cc3ccccc3)(Sc3nc(=O)c(OCc4ccccc4)nn3C)S(=O)(=O)[C@H]12` (stereo partly drawn) [Compound 46, 2-Benzyl-2-(6-benzyloxy-2,5-dihydro-2-methyl-5-oxo-1,2,4-triazin-3-yl)thio-4-tert-butylcarbonyl-7α-methoxy-3-methyl-3-cephem 1,1-dioxide] showed a kinact/KI of 160000 M⁻¹ s⁻¹ and a Ki of 4 nM.
`CO[C@H]1C(=O)N2C(C(=O)C(C)(C)C)=C(CSc3nnnn3C)C(Sc3nnnn3C)S(=O)(=O)C12` (some centres unmarked) [Ref. 2, reference compound] was tested, and the Ki was 93 nM.
`CO[C@H]1C(=O)N2C(C(=O)C(C)(C)C)=C(C)C(Cc3ccccc3)(Sc3nnnn3C)S(=O)(=O)[C@H]12` (stereo partly drawn) [Compound 10, 2-Benzyl-4-tert-butylcarbonyl-7α-methoxy-3-methyl-2-(1-methyl-1,2,3,4-tetrazol-5-yl)thio-3-cephem 1,1-dioxide] showed a kinact/KI of 110000 M⁻¹ s⁻¹ and a Ki of 4 nM.
In the case of `C=CCOC(=O)c1ccc(CC2(Sc3nnnn3C)C(C)=C(C(=O)C(C)(C)C)N3C(=O)[C@H](OC)[C@H]3S2(=O)=O)cc1` (stereo partly drawn) [Compound 31, 2-(4-allyloxycarbonylbenzyl)-4-tert-butylcarbonyl-7α-methoxy-3-methyl-2-(1-methyl-1,2,3,4-tetrazol-5-yl)thio-3-cephem 1,1-dioxide], the kinact/KI is reported as 560000 M⁻¹ s⁻¹ and the Ki is reported as 1.3 nM.
Work on `CO[C@H]1C(=O)N2C(C(=O)C(C)(C)C)=C(CSc3nnnn3C)C(C)(Sc3nnnn3C)S(=O)(=O)[C@H]12` (stereo partly drawn) [Compound 28, 4-tert-Butylcarbonyl-7α-methoxy-2-methyl-2-(1-methyl-1,2,3,4-tetrazol-5-yl)thio-3-(1-methyl-1,2,3,4-tetrazol-5-yl)thiomethyl-3-cephem 1,1-dioxide] yielded a kinact/KI of 1.4e+06 M⁻¹ s⁻¹ and a Ki of 3 nM.
With `CO[C@H]1C(=O)N2C(C(=O)C(C)(C)C)=C(C)C(Cc3ccc(C(=O)OC(c4ccccc4)c4ccccc4)cc3)(Sc3nnnn3C)S(=O)(=O)[C@H]12` (stereo partly drawn) [Compound 30, 2-(4-benzhydryloxycarbonylbenzyl)-4-tert-Butylcarbonyl-7α-methoxy-3-methyl-2-(1-methyl-1,2,3,4-tetrazol-5-yl)thio-3-cephem1,1-dioxide] the kinact/KI was 77000 M⁻¹ s⁻¹ and the Ki was 1 nM.
In the case of `CO[C@H]1C(=O)N2C(C(=O)N3CCCC3)=C(CSc3nc(=O)c(O)nn3C)CS(=O)(=O)[C@H]12` [Ref. 3, reference compound], the kinact/KI is reported as 1500 M⁻¹ s⁻¹.
